Source: patent US5449684A (priority 1993, dated 1995)
≈ marks a conversion by molar mass, not a printed value.

Legend:
Assay type in all cases: cell-based
[1] = tested on: human lung carcinoma A-549; experiment: in vitro antitumour activity in cell cultures of human lung carcinoma A-549; conditions: A549, A-549 cell culture
Protocol: (§1) The antitumour activities of Mycaperoxide A and Mycaperoxide B have been determined "in vitro" in cell cultures of mouse leukemia P-388, human lung carcinoma A-549 and human colon carcinoma HT-29. The procedure was carried out using the method described by Raymond J. Bergeron et al. Biochem Bioph. Res. Comm. 1984, 121(3), 848-854 and by Alan C Shroeder et al. J. Med. Chem. 1981, 24 1078-1083.

[2] = tested on: VSV (Vesicular stomatitis virus); experiment: microbe, parasite or virus in culture; conditions: read-out: IC50 VSV
mouse leukemia P-388 = experiment: in vitro antitumour activity in cell cultures of mouse leukemia P-388; conditions: P388, P-388 cell culture
Protocol: as §1

[3] = tested on: human colon carcinoma HT-29; experiment: in vitro antitumour activity in cell cultures of human colon carcinoma HT-29; conditions: HT-29 cell culture
Protocol: as §1

Structure (SMILES)	IC50 [1]	IC50 [2]	IC50 (mouse leukemia P-388)	IC50 [3]
CC(C(=O)O)C1CCC(C)(CCC2(O)C(C)CCC3C(C)(C)CCCC32C)OO1 (centres unmarked) [Mycaperoxide B, mycaperoxide B]	1 µg/mL (≈ 2.44 µM)	4 µg/mL (≈ 9.74 µM)	1 µg/mL (≈ 2.44 µM)	1 µg/mL (≈ 2.44 µM)
CC(C(=O)O)C1CCC(C)(CCC2(C)C(C)CCC3C(C)(C)CCCC32O)OO1 (centres unmarked) [Mycaperoxide A, mycaperoxide A]	0.5 µg/mL (≈ 1.22 µM)	2 µg/mL (≈ 4.87 µM)	0.5 µg/mL (≈ 1.22 µM)	0.5 µg/mL (≈ 1.22 µM)
